Measurements: BindingDB's records for doi:10.7270/Q2X928QK (University of Pittsburgh, 2007)

These compounds were tested against T1, M-phase inducer phosphatase 2 (Homo sapiens, UniProt P30305) (assay: Cdc25B catalytic domain inhibition plus catalase – biochemical, catalase present, probe assessment, dose response (AID 668)).
T1 sequence (P30305 whole entry): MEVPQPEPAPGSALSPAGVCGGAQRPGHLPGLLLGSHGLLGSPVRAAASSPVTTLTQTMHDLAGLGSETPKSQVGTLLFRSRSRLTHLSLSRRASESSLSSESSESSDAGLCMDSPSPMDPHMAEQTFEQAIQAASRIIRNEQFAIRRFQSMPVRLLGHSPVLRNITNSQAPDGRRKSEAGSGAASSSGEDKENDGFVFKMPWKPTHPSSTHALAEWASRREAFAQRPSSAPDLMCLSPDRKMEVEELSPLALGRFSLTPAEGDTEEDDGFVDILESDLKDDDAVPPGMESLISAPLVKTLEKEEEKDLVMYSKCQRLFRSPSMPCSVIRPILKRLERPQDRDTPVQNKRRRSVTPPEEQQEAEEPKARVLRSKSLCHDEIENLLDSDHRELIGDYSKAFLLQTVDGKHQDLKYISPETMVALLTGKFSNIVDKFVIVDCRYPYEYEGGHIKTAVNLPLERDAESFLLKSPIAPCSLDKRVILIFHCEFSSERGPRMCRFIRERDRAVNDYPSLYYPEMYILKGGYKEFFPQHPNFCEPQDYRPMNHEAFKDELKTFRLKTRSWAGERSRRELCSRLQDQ

| IC50 | Compound |
| --- | --- |
| 22.4 µM | O=C(Nc1ccc2nc(-c3ccco3)c(-c3ccco3)nc2c1)N1CCCCCC1 |
| 7.12 µM | Cc1ccc2c(c1C)NC(C(=O)O)C1CC=CC21 (stereo not given) |
| 11 µM | O=C(O)C1Nc2c(O)cccc2C2C=CCC12 (stereo not given) |
| > 50 µM | [O-]/[N+](=C\c1ccncc1)c1ccccc1 |
| > 50 µM | [O-]/[N+](=C\c1ccc(OC(F)F)cc1)c1ccccc1 [1-[4-(difluoromethoxy)phenyl]-N-phenylmethanimine oxide] |
| 48.9 µM | O=C1Cc2ccccc2C(=O)N1CCc1ccccc1 [2-(2-phenylethyl)-4H-isoquinoline-1,3-dione] |
| 14.1 µM | N#Cc1c(N)sc(=S)c2c1CCN(Cc1ccccc1)C2 [3-Amino-7-benzyl-1-thioxo-5,6,7,8-tetrahydro-1H-thiopyrano[3,4-c]pyridine-4-carbonitrile] |
| 45 µM | Cc1ccccc1Nc1cc2ccccc2c(O)n1 [3-[(2-methylphenyl)amino]-2H-isoquinolin-1-one] |
| 4.2 µM | COc1ccc(Br)cc1C=c1sc2nc(-c3ccco3)nn2c1=O [5-[(5-bromanyl-2-methoxy-phenyl)methylidene]-2-(furan-2-yl)-[1,3]thiazolo[3,2-b][1,2,4]triazol-6-one] |
| > 50 µM | CCOC(=O)C(C(=O)OCC)c1cc(Br)c2noc3c2c1C(=O)c1ccccc1-3 [MLS000038842] |
| 45.8 µM | Oc1nc(Nc2ccccc2)cc2ccccc12 [MLS000043701] |
| > 50 µM | Cc1c(N=c2c(=O)c3ccccc3c2=O)c(=O)n(-c2ccccc2)n1C [MLS000105950] |
| > 50 µM | CCOc1ccc2noc3c2c1C(=O)c1ccccc1-3 [MLS000106837] |
| > 50 µM | COc1ccc2noc3c2c1C(=O)c1ccccc1-3 [MLS000106874] |
| 7.35 µM | Cc1ccc2c(c1)C1C=CCC1C(C(=O)O)N2 (stereo not given) [MLS-0067149.0001] |
| > 50 µM | O=C(NC1(O)C(=O)c2ccccc2C1=O)c1ccccc1 [N-(2-hydroxy-1,3-dioxo-2-indenyl)benzamide] |
| 6.18 µM | COc1cccc2c1NC(C(=O)O)C1CC=CC21 (stereo not given) [SMR000009698] |
| 3.8 µM | O=C(OC1CCCCC1)c1ccc2c(c1)C1C=CCC1C(C(=O)O)N2 (stereo not given) [SMR000019385] |
| > 50 µM | N#Cc1c(N2CCCC2)nc(N)c2c(N)nc(N3CCCC3)cc12 [SMR000061605] |
| > 50 µM | Nc1cccc2cnccc12 [isoquinolin-5-amine] |

| Compound | IC50 |
| --- | --- |
| Cn1ncnc2c(=O)n(C)c(=O)nc1-2 | 23 µM |
| O=C1C=Cc2ccccc2C1=O [1,2-dihydronaphthalene-1,2-dione] | 25.4 µM |
| CCn1nc(-c2ccccc2)nc2c(=O)n(C)c(=O)nc1-2 [1-Ethyl-6-methyl-3-phenyl-1H-pyrimido[5,4-e][1,2,4]triazine-5,7-dione] | 20 µM |
| CCn1nc(-c2cccs2)nc2c(=O)n(C)c(=O)nc1-2 [1-ethyl-6-methyl-3-thiophen-2-yl-pyrimido[5,4-e][1,2,4]triazine-5,7-dione] | > 50 µM |
| CC(=O)Nc1cc(OC(C)=O)c2nonc2c1OC(C)=O [Acetic acid 7-acetoxy-5-acetylamino-benzo[1,2,5]oxadiazol-4-yl ester] | > 50 µM |
